# Reference: patent publication US20100173972A1, “METHODS AND USES RELATED TO RHBDL4” (MEDICAL RESEARCH COUNCIL, priority 2007, published 2010)
# Where a SMILES comes first, the peptide text is derived from it. The star is where a group is joined. Decanoyl = CCCCCCCCCC(=O)*; Cbz = O=C(OCc1ccccc1)*; CH2Cl = ClC*
# T1: mouse RHBDL4 (Mus musculus, UniProt Q8BHC7)
# T1 sequence (Q8BHC7 1-315): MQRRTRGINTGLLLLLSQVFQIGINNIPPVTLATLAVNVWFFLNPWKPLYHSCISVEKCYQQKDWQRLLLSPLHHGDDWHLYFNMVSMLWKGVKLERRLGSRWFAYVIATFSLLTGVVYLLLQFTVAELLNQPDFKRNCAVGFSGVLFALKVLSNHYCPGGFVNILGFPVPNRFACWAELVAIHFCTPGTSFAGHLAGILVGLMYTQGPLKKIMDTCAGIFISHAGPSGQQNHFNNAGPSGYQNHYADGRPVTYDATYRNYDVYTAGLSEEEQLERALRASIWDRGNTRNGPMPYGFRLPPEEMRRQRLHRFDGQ
# T2: in vitro translated substrate comprising the transmembrane domain of Drosophila Gurken, P42287
# T2 chain: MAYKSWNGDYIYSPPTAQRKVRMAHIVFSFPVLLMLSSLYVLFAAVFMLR
# T3: Drosophila Spitz, Q01083
# T3 chain: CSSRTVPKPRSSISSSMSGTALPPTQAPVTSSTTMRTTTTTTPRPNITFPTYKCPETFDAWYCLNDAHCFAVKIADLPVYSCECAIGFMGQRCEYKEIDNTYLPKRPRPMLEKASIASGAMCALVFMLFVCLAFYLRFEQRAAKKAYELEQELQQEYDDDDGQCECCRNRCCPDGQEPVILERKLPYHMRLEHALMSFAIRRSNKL
# B1: recombinant human RHBDL2 from E. coli (protein)
# chain: MAAVHDLEMESMNLNMGREMKEELEEEEKMREDGGGKDRAKSKKVHRIVSKWMLPEKSRGTYLERANCFPPPVFIISISLAELAVFIYYAVWKPQKQWITLDTGILESPFIYSPEKREEAWRFISYMLVHAGVQHILGNLCMQLVLGIPLEMVHKGLRVGLVYLAGVIAGSLASSIFDPLRYLVGASGGVYALMGGYFMNVLVNFQEMIPAFGIFRLLIIILIIVLDMGFALYRRFFVPEDGSPVSFAAHIAGGFAGMSIGYTVFSCFDKALLKDPRFWIAIAAYLACVLFAVFFNIFLSPAN
# B2: recombinant mouse RHBDL1 from E. coli (protein)
# chain: MDRSSLLQLIQEQQLDPENTGFIGADTFAGLVHSHELPLDPTKLDMLVALAQSNERGQVCYQELVDLISSKRSSSFKRAIANGQRALPRDGLLDEPGLSVYKRFVRYVAYEILPCEVDRRWYFYRHRTCPPPVFMASVTLAQIIVFLCYGARLNKWVLQTYHPEYMKSPLVYHPGHRARAWRFLTYMFMHVGLEQLGFNALLQLMIGVPLEMVHGVLRISLLYLAGVLAGSLTVSITDMRAPVVGGSGGVYALCSAHLANVVMNWAGMRCPYKLLRMVLALVCMSSEVGRAVWLRFSPPLPASGPQPSFMAHLAGAVVGVSMGLTILRSYEERLRDQCGWWVVLLAYGTFLLFAIFWNVFAYDLLGADIPPPP
# B3: mouse RHBDL1 with an N-terminal HA3-tag (protein)
# chain: B2 chain
# B4: mouse RHBDL4 with an N-terminal HA3-tag (protein)
# chain: T1 sequence (Q8BHC7 1-315)
# B5: recombinant mouse RHBDL4, C-terminally His6-tagged, from E. coli (protein)
# chain: T1 sequence (Q8BHC7 1-315)
# How the values were obtained:
# mouse RHBDL4 = target: T1, mouse RHBDL4; assay: Cell-based rhomboid cleavage assay: pro-TGFalpha cleavage by overexpressed RHBDL4; design: expressed in transfected cells; host or cells: COS-7 (also HeLa and HEK293T), pcDNA3.1
# Procedure: (§1) Cell culture and cell-based rhomboid cleavage assay. Cells were propagated in DMEM supplemented with 10% fetal calf serum. COS-7 cells were transfected in 35 mm wells with FuGENE 6 (Roche) as described (7). In brief, 250 ng plasmid encoding the substrate (as indicated in the description of the figures), 25 ng for the rhomboid tested, 50 ng for the GRP receptor and empty plasmid to bring the total DNA to 1 μg was used. For protease titration, 2.5 ng to 250 ng plasmid coding RHBDL4 was used. HeLa and HEK293T were transfected with polyethyleneimine (linear, MW 25000; Polysciences) as described (32) using twice the amount of DNA as used with FuGENE. Transfection efficiency was monitored by co-transfection of pEGFP (Invitrogen). […] Cells were solubilized in SDS-sample buffer and analyzed by SDS-PAGE. […] The precipitate was recovered by centrifugation, washed with acetone and dissolved in SDS-PAGE sample buffer and analyzed by SDS-PAGE. […] Subsequently beads were washed with 20 mM Tris-Cl pH 8.0, 50 mM imidazole, eluted with SDS-sample buffer and analyzed by SDS-PAGE and Western blotting (see below). […]
# (§2) Western blotting. […] Protein was detected with anti phospho-EGFR antibody 9H2 (1:2000, Upstate). […] Bound antibodies were detected by incubation with secondary antibody (Santa Cruz Biotechnology) followed by enhanced chemiluminescence (Amersham Biosciences).
# pro-TGFalpha shedding = assay: BB94 sensitivity of endogenous pro-TGFalpha shedding and trimming (cell-based cleavage assay)
# Procedure: as §1, with “(Invitrogen). Sixteen hours post transfection, medium was replaced with serum-free medium containing 10 μM BB94 (British Biotech) unless otherwise stated. For activation of endogenous rhomboid activity, phorbol 12-myristate 13-acetate (PMA) (1 μM, from Sigma) or bombesin (100 nM, from Sigma) was added to the cell medium.” for “(Invitrogen).”
# Western blotting. Proteins were analyzed by 4-20% Tris-Glycine gradient gels (Invitrogen) followed by Western blot analysis using either anti FLAG M2-HRP (1:1000; Sigma), anti HA antibody 16B12 (1:1000; Covance), anti actin antibody ab8227 (1:5000; Abcam) or affinity purified polyclonal rabbit antibody anti RHBDL4 (1:4000; see above). […] Protein was detected with anti phospho-EGFR antibody 9H2 (1:2000, Upstate). […] Bound antibodies were detected by incubation with secondary antibody (Santa Cruz Biotechnology) followed by enhanced chemiluminescence (Amersham Biosciences).
# [1] = test system: TGFalpha release, HEK293T cells; assay: Time course after PMA induction of HEK293T cells overexpressing pro-TGFalpha, with protease inhibitors; format: cell-based, human
# Procedure: Cell culture and cell-based rhomboid cleavage assay. Cells were propagated in DMEM supplemented with 10% fetal calf serum. COS-7 cells were transfected in 35 mm wells with FuGENE 6 (Roche) as described (7). In brief, 250 ng plasmid encoding the substrate (as indicated in the description of the figures), 25 ng for the rhomboid tested, 50 ng for the GRP receptor and empty plasmid to bring the total DNA to 1 μg was used. For protease titration, 2.5 ng to 250 ng plasmid coding RHBDL4 was used. HeLa and HEK293T were transfected with polyethyleneimine (linear, MW 25000; Polysciences) as described (32) using twice the amount of DNA as used with FuGENE. Transfection efficiency was monitored by co-transfection of pEGFP (Invitrogen). Sixteen hours post transfection, medium was replaced with serum-free medium containing 10 μM BB94 (British Biotech) unless otherwise stated. For activation of endogenous rhomboid activity, phorbol 12-myristate 13-acetate (PMA) (1 μM, from Sigma) or bombesin (100 nM, from Sigma) was added to the cell medium. For inhibitor studies, the indicated protease inhibitors (from Calbiochem), diluted from a stock solution in DMSO, were compared with a carrier only. Medium was harvested typically after 24 to 30 hours; for inhibitor studies using 3,4-Dichloroisocoumarin (DCI) a time course with 0 minutes, 30 minutes and 4 hours was performed (FIG. 4C). Cells were solubilized in SDS-sample buffer and analyzed by SDS-PAGE. EndoH (New England Biolabs) and PNGaseF (New England Biolabs) treatment of SDS-solubilized cell extracts was performed according to the manufacturers instructions. Conditioned media were centrifuged for 10 minutes at full speed in a microfuge to remove cell debris, and subsequently proteins in the supernatant were precipitated by adding trichloroacetic acid (TCA) to 10%. The precipitate was recovered by centrifugation, washed with acetone and dissolved in SDS-PAGE sample buffer and analyzed by SDS-PAGE. Alternatively to TCA precipitation, TGFalpha-H8 in conditioned medium was captured by metal-chelate chromatography using Ni-NTA agarose beads (Qiagen) in the presence of 20 mM imidazole at pH 8.0. Subsequently beads were washed with 20 mM Tris-Cl pH 8.0, 50 mM imidazole, eluted with SDS-sample buffer and analyzed by SDS-PAGE and Western blotting (see below). Typically, from a 35 mm tissue culture dish, 10% of cell extracts and 20% of tissue culture supernatant were loaded. To increase the sensitivity, for experiments shown in FIGS. 1C, 3E, 4A and 4C, five times the amount of the media fractions were loaded.
# Western blotting. Proteins were analyzed by 4-20% Tris-Glycine gradient gels (Invitrogen) followed by Western blot analysis using either anti FLAG M2-HRP (1:1000; Sigma), anti HA antibody 16B12 (1:1000; Covance), anti actin antibody ab8227 (1:5000; Abcam) or affinity purified polyclonal rabbit antibody anti RHBDL4 (1:4000; see above). In order to detect the 6 kDa form of TGFalpha, proteins were transferred on PVDF membrane with 0.2 μm pore size (Millipore) and probed with 1:100 anti TGFalpha antibody 134A-2B3 (Oncogene). For the detection of phosphorylated EGFR, PVDF membranes were blocked in 3% BSA in TBS-Tween supplemented with 200 μM NaVO3. Protein was detected with anti phospho-EGFR antibody 9H2 (1:2000, Upstate). […] Bound antibodies were detected by incubation with secondary antibody (Santa Cruz Biotechnology) followed by enhanced chemiluminescence (Amersham Biosciences).
# [2] = test system: HB-EGF shedding, COS-7 cells; assay: HB-EGF secretion in COS-7 cells overexpressing the bombesin receptor; format: cell-based, green monkey
# Procedure: Cells were propagated in DMEM supplemented with 10% fetal calf serum. COS-7 cells were transfected in 35 mm wells with FuGENE 6 (Roche) as described (7). In brief, 250 ng plasmid encoding the substrate (as indicated in the description of the figures), 25 ng for the rhomboid tested, 50 ng for the GRP receptor and empty plasmid to bring the total DNA to 1 μg was used. […] Transfection efficiency was monitored by co-transfection of pEGFP (Invitrogen). Sixteen hours post transfection, medium was replaced with serum-free medium containing 10 μM BB94 (British Biotech) unless otherwise stated. For activation of endogenous rhomboid activity, phorbol 12-myristate 13-acetate (PMA) (1 μM, from Sigma) or bombesin (100 nM, from Sigma) was added to the cell medium. For inhibitor studies, the indicated protease inhibitors (from Calbiochem), diluted from a stock solution in DMSO, were compared with a carrier only. […] Cells were solubilized in SDS-sample buffer and analyzed by SDS-PAGE. […] Conditioned media were centrifuged for 10 minutes at full speed in a microfuge to remove cell debris, and subsequently proteins in the supernatant were precipitated by adding trichloroacetic acid (TCA) to 10%. The precipitate was recovered by centrifugation, washed with acetone and dissolved in SDS-PAGE sample buffer and analyzed by SDS-PAGE. […]
# proteasome = assay: Proteasome inhibitor treatment of cells expressing pro-TGFalpha; format: cell-based
# Procedure: as §1, with “(Invitrogen). Sixteen hours post transfection, medium was replaced with serum-free medium containing 10 μM BB94 (British Biotech) unless otherwise stated. For activation of endogenous rhomboid activity, phorbol 12-myristate 13-acetate (PMA) (1 μM, from Sigma) or bombesin (100 nM, from Sigma) was added to the cell medium.” for “(Invitrogen).”
# protein kinase C (PKC) = assay: PMA-induced TGFalpha shedding (transactivation); format: cell-based; conditions: PMA 1 μM
# Procedure: as §1, §2
# [3] = target: T2, in vitro translated substrate …
# [4] = target: human pro-TGFalpha, P01135
# Drosophila Spitz, Q01083 = target: T3, Drosophila Spitz, Q01083
# [5] = BB94 20 μM, FLAG6-tagged pro-TGFalpha
# human pro-TGFalpha, P01135, sequence (P01135 whole entry, looked up): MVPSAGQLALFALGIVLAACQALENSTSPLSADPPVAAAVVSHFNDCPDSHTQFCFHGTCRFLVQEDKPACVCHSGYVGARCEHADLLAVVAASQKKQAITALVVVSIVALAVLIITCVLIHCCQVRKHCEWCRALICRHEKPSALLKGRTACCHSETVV
molecule,measurement,setting,value
CNC(=O)[C@H](Cc1ccccc1)NC(=O)[C@H](CC(C)C)[C@H](CSc1cccs1)C(=O)NO [BB94],RHBDL4 cleavage of pro-TGFalpha: sensitivity to inhibitor,"mouse RHBDL4; COS-7 cells, BB94 10 μM",insensitive
same,RHBDL4-triggered TGFalpha release: sensitivity to inhibitor,"mouse RHBDL4; HEK293T cells, TGFalpha with juxtamembrane His8-tag",insensitive
same,Generation of the higher MW forms of TGFalpha by endogenous shedding: sensitivity to inhibitor,pro-TGFalpha shedding; [5],insensitive
same,Trimming to smaller intermediates and species lacking the pro-peptide,pro-TGFalpha shedding; [5],blocked
same,Processing of the 37 kDa form to the 6 kDa secreted bioactive ligand: sensitivity to inhibitor,pro-TGFalpha shedding; bombesin-treated COS-7 cells overexpressing the bombesin receptor,sensitive
same,Release of the 6 kDa form of TGFalpha,"[1]; BB94 20 μM, PMA induction, HEK293T",inhibited
same,Bombesin-enhanced HB-EGF release: sensitivity to inhibitor,"[2]; BB94 20 μM, bombesin treatment",insensitivity
same,HB-EGF shedding by ADAM proteases in unstimulated cells: sensitivity to inhibitor,"[2]; unstimulated cells, BB94",sensitive
CC(C)C[C@@H](C=O)NC(=O)[C@H](CC(C)C)NC(=O)[C@H](CC(C)C)NC(=O)OCc1ccccc1 [MG132] (Cbz-Leu-Leu-Leu-aldehyde),Effect on pro-TGFalpha forms (proteasomal degradation),proteasome; 5 μM,led to unglycosylated TGFalpha
"CCCCCCCCCCCCCC(=O)O[C@@H]1[C@@H](C)[C@@]2(O)[C@@H](C=C(CO)C[C@]3(O)C(=O)C(C)=C[C@@H]23)[C@@H]2C(C)(C)[C@]12OC(C)=O [PMA, phorbol 12-myristate 13-acetate]",BB94-insensitive TGFalpha release activity,protein kinase C (PKC),induced
same,BB94-sensitive (metalloprotease dependent) trimming of TGFalpha,protein kinase C (PKC),enhanced
CC(C)C[C@H](CC(=O)NO)C(=O)N[C@H](C(=O)N[C@@H](C)C(=O)NCCN)C(C)(C)C [TAPI-2],Generation and release of the higher molecular weight form of TGFalpha,[1]; inhibitor 20 μM,none of these inhibitors of known proprotein convertases had an effect
CC[C@H](C)[C@H](NC(=O)[C@H]([C@@H](C)CC)N(C)C(C)=O)C(=O)N[C@H](C(=O)N[C@@H](CC(C)C)C(=O)[C@@]1(C)CO1)[C@@H](C)O [epoxomicin],Effect on pro-TGFalpha forms (proteasomal degradation),proteasome; 2 μM,led to unglycosylated TGFalpha
CCCCCCCCCC(=O)N[C@@H](CCCN=C(N)N)C(=O)N[C@H](C(=O)N[C@@H](CCCCN)C(=O)N[C@@H](CCCN=C(N)N)C(=O)CCl)C(C)C [furin inhibitor I] (Decanoyl-RVKR-CH2Cl),Generation and release of the higher molecular weight form of TGFalpha,[1]; inhibitor 100 μM,none of these inhibitors of known proprotein convertases had an effect
beta-secretase inhibitor IV,Generation and release of the higher molecular weight form of TGFalpha,[1]; inhibitor 10 μM,none of these inhibitors of known proprotein convertases had an effect
B1,"in vitro cleavage assay (SDS-PAGE, decrease of intact substrate band)",[3],"The substrate was cleaved, as indicated by the decreased amount of intact substrate band"
B2,"in vitro cleavage assay (SDS-PAGE, decrease of intact substrate band)",[3],"The substrate was cleaved, as indicated by the decreased amount of intact substrate band"
B3,"secreted 37 kDa product, FLAG6-tagged pro-TGFalpha (Western blot)",[4],overexpression of RHBDL1 caused a minor increase of secreted 37 kDa product
B4,cleavage,"Drosophila Spitz, Q01083",Note that RHBDL4 cleaves Spitz
same,"cleavage of pro-TGFalpha, titration of protease plasmid (Western blot)",[4],cleavage of TGFalpha requires sub-stoichiometric amounts of RHBDL4
B5,"in vitro cleavage assay (SDS-PAGE, decrease of intact substrate band)",[3],"The substrate was cleaved, as indicated by the decreased amount of intact substrate band"
